Reference: ChEMBL document CHEMBL1151209, “New quassinoids, javanicolides C and D and javanicosides B--F, from seeds of Brucea javanica” (J Nat Prod, 2004)
Converted amounts (≈) assume the structure as drawn.

Tested on: P388
Experiment: Cytotoxicity against mouse P388 cells after 48 hrs by MTT assay
Type: functional, cell-based
Conditions: P388, 48 h

Compared with `COC(=O)[C@@]12OC[C@]34[C@H]([C@@H](O)[C@@H]1O)[C@@]1(C)[C@H](O)[C@@H](O)C=C(C)[C@@H]1C[C@H]3OC(=O)[C@H](OC(=O)/C=C(\C)C(C)(C)O)[C@@H]24` [JAVANICOLIDE D], `COC(=O)[C@@]12OC[C@]34[C@H]([C@@H](O)[C@@H]1O)[C@@]1(C)C[C@@H](O)[C@@H](O)[C@@H](C)[C@@H]1C[C@H]3OC(=O)[C@H](OC(=O)C=C(C)C)[C@@H]24` [JAVANICOLIDE C] is higher in IC50: 18 µg/mL (≈ 31.8 µM) for the first, greater than 100 µg/mL for the second.

First: COC(=O)[C@@]12OC[C@@]34[C@@H](CC5=C(C)C(=O)C(O[C@@H]6O[C@H](CO)[C@@H](O)[C@H](O)[C@H]6O)=C[C@]5(C)[C@H]3[C@@H](O)[C@@H]1O)OC(=O)[C@H](OC(=O)C=C(C)C)[C@@H]24 [JAVANICOSIDE C]
Second: CC/C(C)=C/C(=O)O[C@H]1C(=O)O[C@@H]2C[C@H]3[C@H](C)C(=O)C(O[C@@H]4O[C@H](CO)[C@@H](O)[C@H](O)[C@H]4O)=C[C@]3(C)[C@H]3[C@@H](O)[C@H](O)[C@@]4(C(=O)OC)OC[C@]32[C@@H]14 [JAVANICOSIDE F]
The IC50 of the first is 2.8-fold lower: 18 µg/mL (≈ 26.4 µM) for the first, 50 µg/mL (≈ 71.8 µM) for the second.

Going from `CC/C(=C\C(=O)O[C@H]1C(=O)O[C@@H]2C[C@H]3[C@H](C)C(=O)C(O[C@@H]4O[C@H](CO)[C@@H](O)[C@H](O)[C@H]4O)=C[C@]3(C)[C@H]3[C@@H](O)[C@H](O)[C@@]4(C(=O)OC)OC[C@]32[C@@H]14)C(C)(C)O` [JAVANICOSIDE D] to `COC(=O)[C@@]12OC[C@]34[C@H]([C@@H](O)[C@@H]1O)[C@@]1(C)C=C(O[C@@H]5O[C@H](CO)[C@@H](O)[C@H](O)[C@H]5O)C(=O)[C@@H](C)[C@@H]1C[C@H]3OC(=O)[C@H](OC(=O)CC(C)C(C)(C)OC(C)=O)[C@@H]24` (some centres not stated) [JAVANICOSIDE E], the IC50 falls from 89 µg/mL (≈ 120 µM) to 16 µg/mL (≈ 20.8 µM) (5.6-fold).

With `COC(=O)[C@@]12OC[C@]34[C@H]([C@@H](O)[C@@H]1O)[C@@]1(C)C(=O)C(O[C@@H]5O[C@H](CO)[C@@H](O)[C@H](O)[C@H]5O)=C[C@@H](C)[C@@H]1C[C@H]3OC(=O)[C@H](OC(=O)CC(C)C)[C@@H]24` [JAVANICOSIDE B] the IC50 was 5.6 µg/mL (≈ 8.18 µM).
